{"source": "patent US7541368B2", "about": "“Pyrazoles as inhibitors of tumor necrosis factor” (Aventis Pharmaceuticals Inc., priority 2003, dated 2009)", "data": [{"tested_on": "TNF-alpha release in THP-1 cells", "assay": "LPS-induced TNF-alpha release in THP-1 cells", "type": "cell-based", "conditions": "Homo sapiens, THP-1, LPS-stimulated THP-1 cells; read-out: 50% inhibition in the LPS-induced TNF-alpha release in THP-1 cells assay at concentrations within the range", "procedure,_shortened": "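Undifferentiated THP-1 monocytes (1×10^6 cells/ml, 1% FCS) preincubated 1 h at 37° C with compound (1×10^−9 to 1×10^−6 M, 0.3% DMSO), then stimulated with LPS (20 μg/ml) for 18 h. Supernatant TNF-alpha measured by sandwich ELISA (TMB read-out), interpolated from a log/log standard curve (0.125-16 ng/ml).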", "units": {"IC50": "nM"}, "values": [{"smiles": "Cc1ccc(-n2nc(C(C)(C)C)cc2NC(=O)Nc2ccc(CC3CCN(C(=O)Cc4c[nH]c5ccccc45)CC3)cc2)cc1", "note": "[Compound A358, 1-(5-tert-Butyl-2-p-tolyl-2H-pyrazol-3-yl)-3-{4-[1-(2-1H-indol-3-yl-acetyl)-piperidin-4-ylmethyl]-phenyl}-urea]", "IC50": "10 to 500"}, {"smiles": "Cc1ccc(-n2nc(C(C)(C)C)cc2NC(=O)Nc2ccc(CC3CCN(C(=O)c4ccc5cc[nH]c5c4)CC3)cc2)cc1", "note": "[Compound A362, 1-(5-tert-Butyl-2-p-tolyl-2H-pyrazol-3-yl)-3-{4-[1-(1H-indole-6-carbonyl)-piperidin-4-ylmethyl]-phenyl}-urea]", "IC50": "10 to 500"}, {"smiles": "Cc1ccc(-n2nc(C(C)(C)C)cc2NC(=O)Nc2ccc(CC3CCN(C(=O)c4cccc(Nc5nc(C)cc(C)n5)c4)CC3)cc2)cc1", "note": "[Compound A371, 1-(5-tert-Butyl-2-p-tolyl-2H-pyrazol-3-yl)-3-(4-{1-[3-(4,6-dimethyl-pyrimidin-2-ylamino)-benzoyl]-piperidin-4-ylmethyl}-phenyl)-urea]", "IC50": "10 to 500"}, {"smiles": "Cc1ccc(-n2nc(C(C)(C)C)cc2NC(=O)Nc2ccc(CC3CCN(C(=O)c4ccccn4)CC3)cc2)cc1", "note": "[Compound A380, 1-(5-tert-Butyl-2-p-tolyl-2H-pyrazol-3-yl)-3-{4-[1-(pyridine-2-carbonyl)-piperidin-4-ylmethyl]-phenyl}-urea]", "IC50": "10 to 500"}, {"smiles": "Cc1ccc(-n2nc(C(C)(C)C)cc2NC(=O)Nc2ccc(CC3CCN(C(=O)c4ccc5ccccc5n4)CC3)cc2)cc1", "note": "[Compound A383, 1-(5-tert-Butyl-2-p-tolyl-2H-pyrazol-3-yl)-3-{4-[1-(quinoline-2-carbonyl)-piperidin-4-ylmethyl]-phenyl}-urea]", "IC50": "10 to 500"}, {"smiles": "Cc1ccc(-n2nc(C(C)(C)C)cc2NC(=O)Nc2ccc(CC3CCN(C(=O)c4cnc5ccccc5c4)CC3)cc2)cc1", "note": "[Compound A384, 1-(5-tert-Butyl-2-p-tolyl-2H-pyrazol-3-yl)-3-{4-[1-(quinoline-3-carbonyl)-piperidin-4-ylmethyl]-phenyl}-urea]", "IC50": "10 to 500"}, {"smiles": "Cc1ccc(-n2nc(C(C)(C)C)cc2NC(=O)Nc2ccc(CC3CCN(C(=O)c4ccnc5ccccc45)CC3)cc2)cc1", "note": "[Compound A385, 1-(5-tert-Butyl-2-p-tolyl-2H-pyrazol-3-yl)-3-{4-[1-(quinoline-4-carbonyl)-piperidin-4-ylmethyl]-phenyl}-urea]", "IC50": "10 to 500"}, {"smiles": "Cc1ccc(-n2nc(C(C)(C)C)cc2NC(=O)Nc2ccc(CC3CCN(C(=O)Cc4cccs4)CC3)cc2)cc1", "note": "[Compound A388, 1-(5-tert-Butyl-2-p-tolyl-2H-pyrazol-3-yl)-3-{4-[1-(2-thiophen-2-yl-acetyl)-piperidin-4-ylmethyl]-phenyl}-urea]", "IC50": "10 to 500"}, {"smiles": "Cc1ccc(-n2nc(C(C)(C)C)cc2NC(=O)Nc2ccc(CC3CCN(C(=O)Cc4ccsc4)CC3)cc2)cc1", "note": "[Compound A389, 1-(5-tert-Butyl-2-p-tolyl-2H-pyrazol-3-yl)-3-{4-[1-(2-thiophen-3-yl-acetyl)-piperidin-4-ylmethyl]-phenyl}-urea]", "IC50": "10 to 500"}, {"smiles": "CC(=O)c1ccc(NC(=O)N2CCC(Cc3cccc(NC(=O)Nc4cc(C(C)(C)C)nn4-c4ccc(C)cc4)c3)CC2)cc1", "note": "[Compound A403, 4-{3-[3-(5-tert-Butyl-2-p-tolyl-2H-pyrazol-3-yl)-ureido]-benzyl}-piperidine-1-carboxylic acid (4-acetyl-phenyl)-amide]", "IC50": "10 to 500"}, {"smiles": "Cc1ccc(-n2nc(C(C)(C)C)cc2NC(=O)Nc2ccc(CC3CCN(C(=O)Nc4ccc5c(c4)OCO5)CC3)cc2)cc1", "note": "[Compound A429, 4-{4-[3-(5-tert-Butyl-2-p-tolyl-2H-pyrazol-3-yl)-ureido]-benzyl}-piperidine-1-carboxylic acid benzo[1,3]dioxol-5-ylamide]", "IC50": "10 to 500"}, {"smiles": "Cc1ccc(-n2nc(C(C)(C)C)cc2NC(=O)Nc2ccc(CC3CCN(C(=O)Nc4ccc(N(C)C)cc4)CC3)cc2)cc1", "note": "[Compound A450, 4-{4-[3-(5-tert-Butyl-2-p-tolyl-2H-pyrazol-3-yl)-ureido]-benzyl}-piperidine-1-carboxylic acid (4-dimethylamino-phenyl)-amide]", "IC50": "10 to 500"}, {"smiles": "COc1ccc(OC)c(S(=O)(=O)N2CCC(Cc3ccc(NC(=O)Nc4cc(C(C)(C)C)nn4-c4ccc(C)cc4)cc3)CC2)c1", "note": "[Compound A564, 1-(5-tert-Butyl-2-p-tolyl-2H-pyrazol-3-yl)-3-{4-[1-(2,5-dimethoxy-benzenesulfonyl)-piperidin-4-ylmethyl]-phenyl}-urea]", "IC50": "10 to 500"}, {"smiles": "Cc1ccc(-n2nc(C(C)(C)C)cc2NC(=O)Nc2ccc(CC3CCN(S(=O)(=O)c4ccccc4Cl)CC3)cc2)cc1", "note": "[Compound A567, 1-(5-tert-Butyl-2-p-tolyl-2H-pyrazol-3-yl)-3-{4-[1-(2-chloro-benzenesulfonyl)-piperidin-4-ylmethyl]-phenyl}-urea]", "IC50": "10 to 500"}, {"smiles": "COc1ccc(C)cc1S(=O)(=O)N1CCC(Cc2ccc(NC(=O)Nc3cc(C(C)(C)C)nn3-c3ccc(C)cc3)cc2)CC1", "note": "[Compound A592, 1-(5-tert-Butyl-2-p-tolyl-2H-pyrazol-3-yl)-3-{4-[1-(2-methoxy-5-methyl-benzenesulfonyl)-piperidin-4-ylmethyl]-phenyl}-urea]", "IC50": "10 to 500"}, {"smiles": "CCS(=O)(=O)N1CCC(Cc2ccc(NC(=O)Nc3cc(C(C)(C)C)nn3-c3ccc(C)cc3)cc2)CC1", "note": "[Compound A606, 1-(5-tert-Butyl-2-p-tolyl-2H-pyrazol-3-yl)-3-[4-(1-ethanesulfonyl-piperidin-4-ylmethyl)-phenyl]-urea]", "IC50": "10 to 500"}, {"smiles": "COC(=O)c1ccccc1S(=O)(=O)N1CCC(Cc2ccc(NC(=O)Nc3cc(C(C)(C)C)nn3-c3ccc(C)cc3)cc2)CC1", "note": "[Compound A609, 2-(4-{4-[3-(5-tert-Butyl-2-p-tolyl-2H-pyrazol-3-yl)-ureido]-benzyl}-piperidine-1-sulfonyl)-benzoic acid methyl ester]", "IC50": "10 to 500"}, {"smiles": "COc1ccc2c(CC(=O)N3C4CCC3CC(Cc3cccc(NC(=O)Nc5cc(C(C)(C)C)nn5-c5ccc(C)cc5)c3)C4)coc2c1", "note": "(stereo not shown) [Compound A618, 1-(5-tert-Butyl-2-p-tolyl-2H-pyrazol-3-yl)-3-(3-{8-[2-(6-methoxy-benzofuran-3-yl)-acetyl]-8-aza-bicyclo[3.2.1]oct-3-ylmethyl}-phenyl)-urea]", "IC50": "10 to 500"}, {"smiles": "Cc1ccc(-n2nc(C(C)(C)C)cc2NC(=O)Nc2cccc(CC3CC4CCC(C3)N4C(=O)Cc3cn(C)c4ccccc34)c2)cc1", "note": "(stereo not shown) [Compound A641, 1-(5-tert-Butyl-2-p-tolyl-2H-pyrazol-3-yl)-3-(3-{8-[2-(1-methyl-1H-indol-3-yl)-acetyl]-8-aza-bicyclo[3.2.1]oct-3-ylmethyl}-phenyl)-urea]", "IC50": "10 to 500"}, {"smiles": "Cc1ccc(-n2nc(C(C)(C)C)cc2NC(=O)Nc2cccc(CC3CC4CCC(C3)N4C(=O)Cc3ccc(F)c(F)c3)c2)cc1", "note": "(stereo not shown) [Compound A719, 1-(5-tert-Butyl-2-p-tolyl-2H-pyrazol-3-yl)-3-(3-{8-[2-(3,4-difluoro-phenyl)-acetyl]-8-aza-bicyclo[3.2.1]oct-3-ylmethyl}-phenyl)-urea]", "IC50": "10 to 500"}, {"smiles": "Cc1ccc(-n2nc(C(C)(C)C)cc2NC(=O)Nc2cccc(CC3CC4CCC(C3)N4C(=O)Cc3ccc(F)cc3F)c2)cc1", "note": "(stereo not shown) [Compound A720, 1-(5-tert-Butyl-2-p-tolyl-2H-pyrazol-3-yl)-3-(3-{8-[2-(2,4-difluoro-phenyl)-acetyl]-8-aza-bicyclo[3.2.1]oct-3-ylmethyl}-phenyl)-urea]", "IC50": "10 to 500"}, {"smiles": "Cc1ccc(-n2nc(C(C)(C)C)cc2NC(=O)Nc2cccc(CC3CC4CCC(C3)N4C(=O)Cc3ccccc3F)c2)cc1", "note": "(stereo not shown) [Compound A761, 1-(5-tert-Butyl-2-p-tolyl-2H-pyrazol-3-yl)-3-(3-{8-[2-(2-fluoro-phenyl)-acetyl]-8-aza-bicyclo[3.2.1]oct-3-ylmethyl}-phenyl)-urea]", "IC50": "10 to 500"}, {"smiles": "CC(=O)NCC(=O)N1C2CCC1CC(Cc1cccc(NC(=O)Nc3cc(C(C)(C)C)nn3-c3ccc(C)cc3)c1)C2", "note": "(stereo not shown) [Compound A766, N-[2-(3-{3-[3-(5-tert-Butyl-2-p-tolyl-2H-pyrazol-3-yl)-ureido]-benzyl}-8-aza-bicyclo[3.2.1]oct-8-yl)-2-oxo-ethyl]-acetamide]", "IC50": "10 to 500"}, {"smiles": "COc1cccc(C(=O)N2C3CCC2CC(Cc2cccc(NC(=O)Nc4cc(C(C)(C)C)nn4-c4ccc(C)cc4)c2)C3)c1OC", "note": "(stereo not shown) [Compound A786, 1-(5-tert-Butyl-2-p-tolyl-2H-pyrazol-3-yl)-3-{3-[8-(2,3-dimethoxy-benzoyl)-8-aza-bicyclo[3.2.1]oct-3-ylmethyl]-phenyl}-urea]", "IC50": "10 to 500"}, {"smiles": "COc1cccc(CC(=O)N2C3CCC2CC(Cc2ccc(NC(=O)Nc4cc(C(C)(C)C)nn4-c4ccc(C)cc4)cc2)C3)c1OC", "note": "(stereo not shown) [Compound A1312, 1-(5-tert-Butyl-2-p-tolyl-2H-pyrazol-3-yl)-3-(4-{8-[2-(2,3-dimethoxy-phenyl)-acetyl]-8-aza-bicyclo[3.2.1]oct-3-ylmethyl}-phenyl)-urea]", "IC50": "10 to 500"}, {"smiles": "Cc1ccc(-n2nc(C(C)(C)C)cc2NC(=O)Nc2ccc(CC3CC4CCC(C3)N4C(=O)Cc3ccc(F)cc3F)cc2)cc1", "note": "(stereo not shown) [Compound A1364, 1-(5-tert-Butyl-2-p-tolyl-2H-pyrazol-3-yl)-3-(4-{8-[2-(2,4-difluoro-phenyl)-acetyl]-8-aza-bicyclo[3.2.1]oct-3-ylmethyl}-phenyl)-urea]", "IC50": "10 to 500"}, {"smiles": "COc1ccccc1CC(=O)N1C2CCC1CC(Cc1ccc(NC(=O)Nc3cc(C(C)(C)C)nn3-c3ccc(C)cc3)cc1)C2", "note": "(stereo not shown) [Compound A1404, 1-(5-tert-Butyl-2-p-tolyl-2H-pyrazol-3-yl)-3-(4-{8-[2-(2-methoxy-phenyl)-acetyl]-8-aza-bicyclo[3.2.1]oct-3-ylmethyl}-phenyl)-urea]", "IC50": "10 to 500"}, {"smiles": "COc1cc(N)c(Cl)cc1C(=O)N1C2CCC1CC(Cc1ccc(NC(=O)Nc3cc(C(C)(C)C)nn3-c3ccc(C)cc3)cc1)C2", "note": "(stereo not shown) [Compound A1441, 1-{4-[8-(4-Amino-5-chloro-2-methoxy-benzoyl)-8-aza-bicyclo[3.2.1]oct-3-ylmethyl]-phenyl}-3-(5-tert-butyl-2-p-tolyl-2H-pyrazol-3-yl)-urea]", "IC50": "10 to 500"}]}]}
